From PubChem BioAssay (NCI)
“And” between values parts separate entries of the source, which are not always exact repeats. Equal values may be shown once.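 Following 48 hours of exposure in 96-well plates, responses at five concentrations were used to interpolate endpoints linearly. At the GI50, growth is halved. TGI denotes the concentration required for complete inhibition of growth.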

Key:
Assay in all cases: inhibition of tumour cell growth, NCI panel, 48 h
EKVX NSCLC = tested on: EKVX NSCLC
UO-31 renal = tested on: UO-31 renal
HCT-15 colon = tested on: HCT-15 colon
UACC-62 melanoma = tested on: UACC-62 melanoma
IGROV1 ovarian = tested on: IGROV1 ovarian
SK-MEL-28 melanoma = tested on: SK-MEL-28 melanoma
MDA-MB-435 = tested on: MDA-MB-435
PC-3 prostate = tested on: PC-3 prostate
NCI-H460 lung = tested on: NCI-H460 lung
ACHN renal = tested on: ACHN renal

Row | Structure (SMILES) | GI50 (EKVX NSCLC) | TGI (EKVX NSCLC) | GI50 (UO-31 renal) | TGI (UO-31 renal) | GI50 (HCT-15 colon) | TGI (HCT-15 colon) | GI50 (UACC-62 melanoma) | TGI (UACC-62 melanoma) | GI50 (IGROV1 ovarian) | TGI (IGROV1 ovarian) | GI50 (SK-MEL-28 melanoma) | TGI (SK-MEL-28 melanoma) | GI50 (MDA-MB-435) | TGI (MDA-MB-435) | GI50 (PC-3 prostate) | TGI (PC-3 prostate) | GI50 (NCI-H460 lung) | TGI (NCI-H460 lung) | GI50 (ACHN renal) | TGI (ACHN renal)
1 | COc1ccccc1/C=C/C1=C(C)CCC(c2ccccc2OC)C1C (stereo unspecified) | 0.119 µM | > 100 µM | 0.371 µM | > 100 µM | 0.129 µM | > 100 µM | 0.0684 µM | 40.3 µM | 0.132 µM | > 63.5 µM | 0.24 µM | > 100 µM | 0.0595 µM | 0.154 µM | 0.392 µM | > 100 µM | 0.278 µM | 1.27 µM | 0.272 µM | > 100 µM
2 | C/C(=N/O)c1ccc2c(c1)/C(=N/O)c1ccccc1-2 | 21.2 µM | 66.1 µM | 18.7 µM | 38.2 µM | 17.1 µM | 33.7 µM | 18.3 µM | 37.5 µM | 22.3 µM | 41.1 µM | 17.9 µM | 39.9 µM | 18.7 µM | 39.4 µM | 24.2 µM | 57.4 µM | 21.1 µM | 46.4 µM | 20.6 µM | 46.1 µM
3 | COc1ccc(-c2[nH]nc(N)c2-c2cc(OC)c3c(c2)OCO3)cc1 | 9.09 µM | > 100 µM | 4.35 µM | 69.7 µM | 3.69 µM | > 100 µM | 4.13 µM | > 100 µM | 8.51 µM | 70.5 µM | 6.3 µM | > 100 µM | 0.559 µM | 2.54 µM | 14.3 µM | > 100 µM | 3.38 µM | > 100 µM | 6.88 µM | > 100 µM
4 | CCCCCCCCCCCCCCCCCCOc1ccccc1CC(=O)OCC[N+](CC)(CC)CC | 2.15 µM | 8.44 µM | 5.52 µM | 14.5 µM | 4.39 µM | 13.1 µM | 1.16 µM | 3.37 µM | 0.923 µM | 1.97 µM | 1.9 µM | 7.55 µM | 1.55 µM | 6.2 µM | 1.2 µM | 3.18 µM | 1.73 µM | 6.34 µM | 4.39 µM | 11.3 µM
5 | COc1cccc(/C=C/c2ccnc3ccccc23)c1OC | – | > 10 µM | – | > 10 µM | – | > 10 µM | – | > 10 µM | – | > 10 µM | – | > 10 µM | – | > 10 µM | – | > 10 µM | – | > 10 µM | – | > 10 µM
6 | NC(=O)CC1(O)C=C(Br)C(=O)C(Br)=C1 | 5.84 µM | 19.7 µM | 2.17 µM | 11.2 µM | 2.65 µM | 7.75 µM | 4.21 µM | 15.8 µM | 6.57 µM | 30 µM | 1.87 µM | 3.7 µM | 2.04 µM | 7.31 µM | 7.65 µM | 24.9 µM | 18.5 µM | 37 µM | 3.44 µM | 12.3 µM
7 | CCCCCCCCCC(CCCC(O)CC(=O)O)OC1OC(COC2OC(C)C(OC(C)=O)C(O)C2O)C(O)C(O)C1OC1OC(CO)C(O)C(O)C1OC1OC(C)C(OC(=O)CC(C)C)C(O)C1O (stereo unspecified) | > 35 µM | > 35 µM | > 35 µM | > 35 µM | > 35 µM | > 35 µM | > 35 µM | > 35 µM | > 35 µM | > 35 µM | > 35 µM | > 35 µM | > 35 µM | > 35 µM | > 35 µM | > 35 µM | > 35 µM | > 35 µM | > 35 µM | > 35 µM
8 | C/C(=N\n1c(O)c(C#N)cc(C#N)c1=O)c1ccncc1 | > 100 µM | > 100 µM | > 100 µM | > 100 µM | > 100 µM | > 100 µM | > 100 µM | > 100 µM | > 100 µM | > 100 µM | > 100 µM | > 100 µM | > 100 µM | > 100 µM | > 100 µM | > 100 µM | > 100 µM | > 100 µM | > 100 µM | > 100 µM
9 | COc1ccc2nc3cc([N+](=O)[O-])ccc3c(NNc3ccccc3)c2c1 | – | > 100 µM and 71.8 µM | 13.1 µM | 34.3 µM and > 100 µM | 12 µM | > 100 µM and 67.2 µM | 5.93 µM | 22.8 µM and 25.1 µM | 15.4 µM | 68.6 µM and 27.9 µM | 15.3 µM | 34.9 µM and > 100 µM | 13.4 µM | 35.3 µM and > 100 µM | 10.4 µM | 40.4 µM and > 100 µM | – | 25.2 µM and 42.3 µM | 14.4 µM | 33.1 µM and > 83.3 µM
10 | O=C(O)c1c(Cl)c(Cl)c(Cl)c(Cl)c1C(=O)Nc1ccc2cn[nH]c2c1 | – | > 100 µM | – | > 100 µM | – | > 100 µM | – | > 100 µM | – | > 100 µM | – | > 100 µM | – | > 100 µM | – | > 100 µM | – | > 100 µM | – | > 100 µM
11 | CN1CCN(c2ccc(NC(=O)c3cncnc3Nc3ccc(OCc4cccc(F)c4)c(Cl)c3)cc2)CC1 | 10.9 µM | > 50 µM | 0.893 µM | 1.7 µM | 0.889 µM | 1.91 µM | 0.914 µM | 1.74 µM | 1.78 µM | > 50 µM | 0.849 µM | 1.56 µM | 0.972 µM | 1.87 µM | 1.78 µM | > 50 µM | 1.14 µM | 2.47 µM | 1.34 µM | 3.74 µM
12 | NC(Cc1c[nH]c2ccc(F)cc12)C(=O)O (stereo unspecified) | 1000 µM | > 2500 µM | 444 µM | 1950 µM | 1180 µM | > 2500 µM | 755 µM | > 2500 µM | – | – | 795 µM | > 2500 µM | 785 µM | > 2500 µM | 780 µM | > 2500 µM | 730 µM | > 2500 µM | 738 µM | > 2500 µM
